Laboratory results: patent US7858635B2 (priority 2005, dated 2010)
Where two headings read alike, the source gives them in different places.

Legend:
[1] = biological target: T1, M1 muscarinic receptor (Homo sapiens, UniProt P11229); assay: Functional mobilization of intracellular calcium (FLIPR, Fluo-3), M1-CHO cells; assay type: cell-based; conditions: for Emax: read-out: M1 Efficacy
T1 construct: expressed in transfected cells; host or cells: CHO cells (M1-CHO, under zeocin and G418 selection)
T1 sequence (P11229 1-460): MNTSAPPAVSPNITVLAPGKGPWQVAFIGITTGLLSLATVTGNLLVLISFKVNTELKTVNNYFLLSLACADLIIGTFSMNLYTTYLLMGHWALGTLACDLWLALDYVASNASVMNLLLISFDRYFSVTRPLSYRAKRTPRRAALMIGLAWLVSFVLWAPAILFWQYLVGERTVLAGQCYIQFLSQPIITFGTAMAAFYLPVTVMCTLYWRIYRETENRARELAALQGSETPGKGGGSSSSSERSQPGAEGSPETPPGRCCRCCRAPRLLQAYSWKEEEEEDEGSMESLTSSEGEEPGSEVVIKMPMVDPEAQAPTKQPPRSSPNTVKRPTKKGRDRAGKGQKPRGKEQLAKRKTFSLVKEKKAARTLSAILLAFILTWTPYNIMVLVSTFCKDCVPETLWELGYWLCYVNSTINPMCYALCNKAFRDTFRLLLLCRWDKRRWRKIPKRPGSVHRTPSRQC
Summary of the method: (§1)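 Intracellular calcium was tracked by fluorescence (488/540 nm) over 60 sec after compound addition to dye-loaded CHO cells expressing the receptor. Inhibitory activity used a 15 min pre-incubation before carbachol at the subtype EC80.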

[2] = biological target: T2, M4 muscarinic receptor (Homo sapiens, UniProt P08173); assay: Functional mobilization of intracellular calcium (FLIPR, Fluo-3), M4-CHO cells; assay type: cell-based; conditions: for Emax: read-out: M4 Efficacy
T2 construct: expressed in transfected cells; host or cells: CHO cells (M4-CHO, under puromycin, zeocin and blasticidin selection)
T2 sequence (P08173 1-479): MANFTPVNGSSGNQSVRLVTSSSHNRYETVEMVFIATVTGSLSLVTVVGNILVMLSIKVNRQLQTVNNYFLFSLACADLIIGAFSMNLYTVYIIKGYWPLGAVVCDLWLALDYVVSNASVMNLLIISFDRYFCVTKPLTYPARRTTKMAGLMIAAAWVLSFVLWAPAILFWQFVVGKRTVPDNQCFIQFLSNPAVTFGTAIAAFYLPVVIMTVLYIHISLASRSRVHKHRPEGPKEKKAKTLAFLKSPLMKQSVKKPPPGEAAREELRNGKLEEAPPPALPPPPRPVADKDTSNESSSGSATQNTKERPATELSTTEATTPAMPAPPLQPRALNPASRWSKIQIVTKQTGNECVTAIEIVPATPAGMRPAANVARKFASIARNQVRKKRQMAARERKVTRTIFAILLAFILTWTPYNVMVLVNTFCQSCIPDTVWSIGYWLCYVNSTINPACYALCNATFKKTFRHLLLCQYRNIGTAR
Summary of the method: as §1

[3] = compound nos. 1-454, 100% efficacy is the maximum response obtained with the Carbachol control
[4] = compound nos. 1-454, M1-CHO cells, calcium mobilization
[5] = compound nos. 1-454, M4-CHO cells, calcium mobilization
[6] = compound nos. 455-509, 100% efficacy is the maximum response obtained with the Carbachol control

| SMILES | Emax [1, 3] [%] | M1 Activity [1, 4] | Emax [2, 3] [%] | M4 Activity [2, 5] | Emax [1, 6] [%] | M1 Activity ([1]; compounds 455-509) | Emax [2, 6] [%] | M4 Activity ([2]; compounds 455-509) | M1 Efficacy [1, 3] | M4 Efficacy [2, 3] |
| --- | --- | --- | --- | --- | --- | --- | --- | --- | --- | --- |
| COC(=O)N1CCC(N2CCC3(CC2)CN(C(=O)N(C)C)c2ccc(F)cc23)CC1 [compound 154] | 65 to 85 | +++ (activity was measured to be less than or equal to 0.7 μM) | > 70 | +++ (activity was measured to be less than or equal to 0.1 μM) | – | – | – | – | – | – |
| CC(=O)N1CC2(CCN(C3CC4CCC(C3)N4C(=O)OC(C)C)CC2)c2cc(F)ccc21 (stereo not drawn) [compound 94] | < 65 | +++ (activity was measured to be less than or equal to 0.7 μM) | < 55 | ++ (activity was measured to be between 0.1 μM and 4.0 μM) | – | – | – | – | – | – |
| Cc1cnc(N2CCC(N3CCC4(CC3)CN(C(=O)N(C)C)c3ccccc34)CC2)cn1 [compound 468] | – | – | – | – | > 100 | + (activity was measured to be greater than or equal to 5.0 μM) | 25 to 100 | ++ (activity was measured to be between 2.0 μM and 5.0 μM) | – | – |
| CCCOC(=O)N1C2CCC1CC(N1CCC3(CC1)CN(C(=O)N(C)C)c1ccc(F)cc13)C2 (stereo not drawn) [compound 360] | 65 to 85 | ++ (activity was measured to be between 0.7 μM and 3.0 μM) | < 55 | + (activity was measured to be greater than or equal to 4.0 μM) | – | – | – | – | – | – |
| COC(=O)N1CC2(CCN(C3CC4CCC(C3)N4C(=O)OCC(C)C)CC2)c2cc(F)ccc21 (stereo not drawn) [compound 287] | < 65 | ++ (activity was measured to be between 0.7 μM and 3.0 μM) | < 55 | + (activity was measured to be greater than or equal to 4.0 μM) | – | – | – | – | – | – |
| COC(=O)N1CCC(CN2CCC3(CC2)C[C@H](NC(C)=O)c2ccccc23)CC1 [compound 182] | 65 to 85 | + (activity was measured to be greater than or equal to 3.0 μM) | 55 to 70 | + (activity was measured to be greater than or equal to 4.0 μM) | – | – | – | – | – | – |
| CC(C)C(=O)N[C@H]1CC2(CCN(C[C@H]3C[C@H]4CC[C@H]3C4)CC2)c2ccccc21 [compound 55] | > 85 | +++ (activity was measured to be less than or equal to 0.7 μM) | 55 to 70 | +++ (activity was measured to be less than or equal to 0.1 μM) | – | – | – | – | – | – |
| Cc1cncc(N2CCC(N3CCC4(CCN(C(=O)N(C)C)c5ccccc54)CC3)CC2)n1 [compound 494] | – | – | – | – | > 100 | +++ (activity was measured to be less than or equal to 2.0 μM) | 25 to 100 | ++ (activity was measured to be between 2.0 μM and 5.0 μM) | – | – |
| Cc1ccc2c(c1)C1(CCN([C@@H]3C[C@@H]4CC[C@@H]3C4)CC1)CN2 [compound 23] | – | ++ (activity was measured to be between 0.7 μM and 3.0 μM) | – | + (activity was measured to be greater than or equal to 4.0 μM) | – | – | – | – | + (efficacy was calculated to be 65% or less) | + (efficacy was calculated to be 55% or less) |
| CC(=O)NC1CC2(CCN(C3CC4CCC3C4)CC2)c2ccccc21 (stereo not drawn) [compound 291] | 65 to 85 | ++ (activity was measured to be between 0.7 μM and 3.0 μM) | 55 to 70 | + (activity was measured to be greater than or equal to 4.0 μM) | – | – | – | – | – | – |
| CCOC(=O)N1C2CCC1CC(N1CCC3(CC1)CN(C(=O)OCCOC)c1ccc(F)cc13)C2 (stereo not drawn) [compound 90] | 65 to 85 | ++ (activity was measured to be between 0.7 μM and 3.0 μM) | < 55 | + (activity was measured to be greater than or equal to 4.0 μM) | – | – | – | – | – | – |
| CCOC(=O)N1CCC(N2CCC3(CC2)CN(C(=O)C2CC2)c2ccc(F)cc23)CC1 [compound 136] | > 85 | +++ (activity was measured to be less than or equal to 0.7 μM) | > 70 | +++ (activity was measured to be less than or equal to 0.1 μM) | – | – | – | – | – | – |
